Measurements as given in ChEMBL document CHEMBL4002623, “Synthesis and in vitro activity of dicationic indolyl diphenyl ethers as novel potent antibiotic agents against drug-resistant bacteria” (Bioorg Med Chem Lett, 2017).
≈ marks a conversion by molar mass, not a printed value.

Key:
Serratia marcescens = experiment: Antibacterial activity against Serratia marcescens 41002 by agar dilution method; assay type: functional
Klebsiella aerogenes = experiment: Antibacterial activity against Enterobacter aerogenes 45102 by agar dilution method; assay type: functional
Staphylococcus aureus [1] = experiment: Antibacterial activity against methicillin-sensitive Staphylococcus aureus 15 by agar dilution method; assay type: functional
Pseudomonas aeruginosa [2] = experiment: Antibacterial activity against Pseudomonas aeruginosa 09-14 by agar dilution method; assay type: functional
Escherichia coli [3] = experiment: Antibacterial activity against extended-spectrum beta-lactamase-negative Escherichia coli 1515 by agar dilution method; assay type: functional
Escherichia coli [4] = experiment: Antibacterial activity against extended-spectrum beta-lactamase-negative Escherichia coli ATCC 25922 by agar dilution method; assay type: functional
[5] = tested on: Staphylococcus epidermidis; experiment: Antibacterial activity against methicillin-resistant Staphylococcus epidermidis 09-3 by agar dilution method; assay type: functional
Klebsiella pneumoniae [6] = experiment: Antibacterial activity against extended-spectrum beta-lactamase-positive Klebsiella pneumoniae ATCC 700603 by agar dilution method; assay type: functional
[7] = tested on: Acinetobacter calcoaceticus; experiment: Antibacterial activity against Acinetobacter calcoaceticus ATCC 19606 by agar dilution method; assay type: functional
Escherichia coli [8] = experiment: Antibacterial activity against extended-spectrum beta-lactamase-positive Escherichia coli 09-1 by agar dilution method; assay type: functional
[9] = tested on: Staphylococcus epidermidis; experiment: Antibacterial activity against methicillin-sensitive Staphylococcus epidermidis 09-9 by agar dilution method; assay type: functional
Klebsiella pneumoniae [10] = experiment: Antibacterial activity against extended-spectrum beta-lactamase-negative Klebsiella pneumoniae 7 by agar dilution method; assay type: functional
Enterococcus faecalis [11] = experiment: Antibacterial activity against vancomycin-resistant Enterococcus faecalis ATCC 51299 by agar dilution method; assay type: functional
Enterococcus faecalis [12] = experiment: Antibacterial activity against vancomycin-resistant Enterococcus faecalis 09-9 by agar dilution method; assay type: functional
Klebsiella pneumoniae [13] = experiment: Antibacterial activity against Klebsiella pneumoniae ATCC BAA-2146 expressing NDM-1 by agar dilution method; assay type: functional
Staphylococcus aureus [14] = experiment: Antibacterial activity against methicillin-resistant Staphylococcus aureus 09-13 by agar dilution method; assay type: functional
Enterobacter cloacae = experiment: Antibacterial activity against Enterobacter cloacae 45301 by agar dilution method; assay type: functional
[15] = Cytotoxicity against HEK293T cells after 48 hrs by MTS assay; assay type: cell-based, HEK-293T; settings: human
Enterococcus faecalis [16] = experiment: Antibacterial activity against vancomycin-sensitive Enterococcus faecalis 09-8 by agar dilution method; assay type: functional
Citrobacter freundii = experiment: Antibacterial activity against Citrobacter freundii ATCC 43864 by agar dilution method; assay type: functional
Salmonella typhi = experiment: Antibacterial activity against Salmonella typhi H901 by agar dilution method; assay type: functional, Salmonella enterica subsp. enterica serovar Typhi; settings: Salmonella enterica
Providencia rettgeri = experiment: Antibacterial activity against Providencia rettgeri ATCC 31052 by agar dilution method; assay type: functional
[17] = tested on: Staphylococcus epidermidis; experiment: Antibacterial activity against methicillin-sensitive Staphylococcus epidermidis ATCC 12228 by agar dilution method; assay type: functional
Escherichia coli [18] = experiment: Antibacterial activity against extended-spectrum beta-lactamase-negative Escherichia coli 09-20 by agar dilution method; assay type: functional
Enterococcus faecium [19] = experiment: Antibacterial activity against vancomycin-resistant Enterococcus faecium 05-8 by agar dilution method; assay type: functional
Proteus vulgaris = experiment: Antibacterial activity against Proteus vulgaris ATCC 29905 by agar dilution method; assay type: functional
Pseudomonas aeruginosa [20] = experiment: Antibacterial activity against Pseudomonas aeruginosa ATCC 27853 by agar dilution method; assay type: functional
Klebsiella pneumoniae [21] = experiment: Antibacterial activity against extended-spectrum beta-lactamase-positive Klebsiella pneumoniae 09-25 by agar dilution method; assay type: functional
Enterococcus faecalis [22] = experiment: Antibacterial activity against vancomycin-sensitive Enterococcus faecalis ATCC 29212 by agar dilution method; assay type: functional
Morganella morganii = experiment: Antibacterial activity against Morganella morganii ATCC 25830 by agar dilution method; assay type: functional
Staphylococcus aureus [23] = experiment: Antibacterial activity against methicillin-sensitive Staphylococcus aureus 09-6 by agar dilution method; assay type: functional
Staphylococcus aureus [24] = experiment: Antibacterial activity against methicillin-sensitive Staphylococcus aureus ATCC 29213 by agar dilution method; assay type: functional
Staphylococcus aureus [25] = experiment: Antibacterial activity against methicillin-resistant Staphylococcus aureus ATCC 33591 by agar dilution method; assay type: functional
Enterococcus faecium [26] = experiment: Antibacterial activity against vancomycin-resistant Enterococcus faecium ATCC 700221 by agar dilution method; assay type: functional
Proteus mirabilis = experiment: Antibacterial activity against Proteus mirabilis 09-1 by agar dilution method; assay type: functional
Klebsiella pneumoniae [27] = experiment: Antibacterial activity against extended-spectrum beta-lactamase-negative Klebsiella pneumoniae 09-8 by agar dilution method; assay type: functional
Pseudomonas aeruginosa [28] = experiment: Antibacterial activity against Pseudomonas aeruginosa PAO1 by agar dilution method; assay type: functional
Enterococcus faecium [29] = experiment: Antibacterial activity against vancomycin-sensitive Enterococcus faecium 09-10 by agar dilution method; assay type: functional

SMILES	MIC (Serratia marcescens) [µg/mL]	MIC (Klebsiella aerogenes) [µg/mL]	MIC (Staphylococcus aureus [1]) [µg/mL]	MIC (Escherichia coli [4]) [µg/mL]	MIC [5] [µg/mL]	MIC [7] [µg/mL]	MIC (Escherichia coli [8]) [µg/mL]	MIC [9] [µg/mL]	MIC (Enterococcus faecalis [11]) [µg/mL]	MIC (Enterococcus faecalis [12]) [µg/mL]	MIC (Klebsiella pneumoniae [13]) [µg/mL]	MIC (Staphylococcus aureus [14]) [µg/mL]	MIC (Enterobacter cloacae) [µg/mL]	MIC (Enterococcus faecalis [16]) [µg/mL]	MIC (Citrobacter freundii) [µg/mL]	MIC (Salmonella typhi) [µg/mL]	MIC (Providencia rettgeri) [µg/mL]	MIC [17] [µg/mL]	MIC (Enterococcus faecium [19]) [µg/mL]	MIC (Proteus vulgaris) [µg/mL]	other results
N=C(c1ccc2cc(-c3ccc(Oc4ccc(-c5cc6ccc(C(=N)N7CCCCC7)cc6[nH]5)cc4)cc3)[nH]c2c1)N1CCCCC1	> 128	> 128	16 (≈ 25.8 µM)	> 128	8 (≈ 12.9 µM)	> 128	> 128	8 (≈ 12.9 µM)	64 (≈ 103 µM)	32 (≈ 51.5 µM)	> 128	16 (≈ 25.8 µM)	> 128	32 (≈ 51.5 µM)	> 128	> 128	> 128	8 (≈ 12.9 µM)	32 (≈ 51.5 µM)	> 128	MIC (Pseudomonas aeruginosa [2]): > 128 µg/mL; MIC (Escherichia coli [3]): > 128 µg/mL; MIC (Klebsiella pneumoniae [6]): > 128 µg/mL; MIC (Klebsiella pneumoniae [10]): > 128 µg/mL; CC50 at 48 h [15]: 2.5 µg/mL (≈ 4.03 µM); MIC (Escherichia coli [18]): > 128 µg/mL; MIC (Pseudomonas aeruginosa [20]): > 128 µg/mL; MIC (Klebsiella pneumoniae [21]): > 128 µg/mL; MIC (Enterococcus faecalis [22]): 32 µg/mL (≈ 51.5 µM); MIC (Morganella morganii): > 128 µg/mL; MIC (Staphylococcus aureus [23]): 16 µg/mL (≈ 25.8 µM); MIC (Staphylococcus aureus [24]): 16 µg/mL (≈ 25.8 µM); MIC (Staphylococcus aureus [25]): 16 µg/mL (≈ 25.8 µM); MIC (Enterococcus faecium [26]): 16 to 32 µg/mL (≈ 25.8 to 51.5 µM); MIC (Proteus mirabilis): > 128 µg/mL; MIC (Klebsiella pneumoniae [27]): > 128 µg/mL; MIC (Pseudomonas aeruginosa [28]): > 128 µg/mL; MIC (Enterococcus faecium [29]): 16 to 32 µg/mL (≈ 25.8 to 51.5 µM)
N=C(c1ccc2cc(-c3ccc(Oc4ccc(-c5cc6ccc(C(=N)N7CCOCC7)cc6[nH]5)cc4)cc3)[nH]c2c1)N1CCOCC1	> 128	> 128	1 (≈ 1.6 µM)	32 (≈ 51.2 µM)	2 (≈ 3.2 µM)	> 128	128 (≈ 205 µM)	2 (≈ 3.2 µM)	4 (≈ 6.4 µM)	16 (≈ 25.6 µM)	> 128	2 (≈ 3.2 µM)	> 128	8 (≈ 12.8 µM)	> 128	64 (≈ 102 µM)	> 128	2 (≈ 3.2 µM)	8 (≈ 12.8 µM)	> 128	MIC (Pseudomonas aeruginosa [2]): > 128 µg/mL; MIC (Escherichia coli [3]): 128 µg/mL (≈ 205 µM); MIC (Klebsiella pneumoniae [6]): > 128 µg/mL; MIC (Klebsiella pneumoniae [10]): > 128 µg/mL; CC50 at 48 h [15]: 4.9 µg/mL (≈ 7.84 µM); MIC (Escherichia coli [18]): 64 µg/mL (≈ 102 µM); MIC (Pseudomonas aeruginosa [20]): > 128 µg/mL; MIC (Klebsiella pneumoniae [21]): > 128 µg/mL; MIC (Enterococcus faecalis [22]): 8 µg/mL (≈ 12.8 µM); MIC (Morganella morganii): 16 µg/mL (≈ 25.6 µM); MIC (Staphylococcus aureus [23]): 2 µg/mL (≈ 3.2 µM); MIC (Staphylococcus aureus [24]): 2 µg/mL (≈ 3.2 µM); MIC (Staphylococcus aureus [25]): 2 µg/mL (≈ 3.2 µM); MIC (Enterococcus faecium [26]): 2 µg/mL (≈ 3.2 µM); MIC (Proteus mirabilis): > 128 µg/mL; MIC (Klebsiella pneumoniae [27]): > 128 µg/mL; MIC (Pseudomonas aeruginosa [28]): > 128 µg/mL; MIC (Enterococcus faecium [29]): 4 µg/mL (≈ 6.4 µM)
N=C(c1ccc2cc(-c3ccc(Oc4ccc(-c5cc6ccc(C(=N)N7CCC(N8CCCC8)CC7)cc6[nH]5)cc4)cc3)[nH]c2c1)N1CCC(N2CCCC2)CC1	> 128	128 (≈ 169 µM)	8 (≈ 10.5 µM)	32 (≈ 42.2 µM)	8 (≈ 10.5 µM)	> 128	64 (≈ 84.3 µM)	8 (≈ 10.5 µM)	8 (≈ 10.5 µM)	16 (≈ 21.1 µM)	128 (≈ 169 µM)	8 (≈ 10.5 µM)	64 (≈ 84.3 µM)	8 (≈ 10.5 µM)	> 128	32 (≈ 42.2 µM)	> 128	3 to 8 (≈ 3.95 to 10.5 µM)	8 (≈ 10.5 µM)	> 128	MIC (Pseudomonas aeruginosa [2]): > 128 µg/mL; MIC (Escherichia coli [3]): 64 µg/mL (≈ 84.3 µM); MIC (Klebsiella pneumoniae [6]): > 128 µg/mL; MIC (Klebsiella pneumoniae [10]): 128 µg/mL (≈ 169 µM); CC50 at 48 h [15]: 1.1 µg/mL (≈ 1.45 µM); MIC (Escherichia coli [18]): 32 µg/mL (≈ 42.2 µM); MIC (Pseudomonas aeruginosa [20]): > 128 µg/mL; MIC (Klebsiella pneumoniae [21]): 128 µg/mL (≈ 169 µM); MIC (Enterococcus faecalis [22]): 8 µg/mL (≈ 10.5 µM); MIC (Morganella morganii): 128 µg/mL (≈ 169 µM); MIC (Staphylococcus aureus [23]): 8 µg/mL (≈ 10.5 µM); MIC (Staphylococcus aureus [24]): 8 µg/mL (≈ 10.5 µM); MIC (Staphylococcus aureus [25]): 8 µg/mL (≈ 10.5 µM); MIC (Enterococcus faecium [26]): 8 µg/mL (≈ 10.5 µM); MIC (Proteus mirabilis): > 128 µg/mL; MIC (Klebsiella pneumoniae [27]): 128 µg/mL (≈ 169 µM); MIC (Pseudomonas aeruginosa [28]): > 128 µg/mL; MIC (Enterococcus faecium [29]): 8 µg/mL (≈ 10.5 µM)
C[C@H]1COc2c(N3CCN(C)CC3)c(F)cc3c(=O)c(C(=O)O)cn1c23.C[C@H]1COc2c(N3CCN(C)CC3)c(F)cc3c(=O)c(C(=O)O)cn1c23.O [LEVOFLOXACIN]	0.25	0.06	0.125	0.03 to 0.06	8	0.25	16	8	0.5	128	> 128	32	0.06	1	≤ 0.03	≤ 0.03	≤ 0.03	0.25	64	≤ 0.03	MIC (Klebsiella pneumoniae [21]): 4 µg/mL; MIC (Enterococcus faecalis [22]): 0.5 µg/mL; MIC (Morganella morganii): ≤ 0.03 µg/mL; MIC (Staphylococcus aureus [23]): 0.25 µg/mL; MIC (Staphylococcus aureus [24]): 0.125 µg/mL; MIC (Staphylococcus aureus [25]): 0.125 µg/mL; MIC (Enterococcus faecium [26]): 64 µg/mL; MIC (Proteus mirabilis): 2 µg/mL; MIC (Klebsiella pneumoniae [27]): ≤ 0.03 µg/mL; MIC (Enterococcus faecium [29]): 64 µg/mL
